Here are results for eleven molecules from ChEMBL document CHEMBL1201862, “PubChem BioAssay data set” (2004).

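Each compound was tested at five concentrations against cells in 96-well plates for 48 hours. At the GI50, growth is halved.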 Activity calls are given as the source filed them. Rule as the data show it: active = GI50 up to about 1.1 µM and inactive = higher.

Assay in all cases: NCI anticancer screen, dose series, 48 h
Assay [1] relates to OVCAR-5.
The test system of assay [2] is NCI-H522.
Assay [3] concerns HL-60.
Assay [4] concerns HOP-92.
The test system of assay [5] is UACC-257.
Assay [6] concerns LOX IMVI.
The test system of assay [7] is SK-OV-3.
For assay [8], the system named is ACHN.
Assay [9] has as its system MOLT-4.
In assay [10] the test system is TK-10.
The test system of assay [11] is Malme-3M.
Assay [12] has as its system OVCAR-8.
Assay [13] relates to T47D.
The subject of assay [14] is HOP-62.
Assay [15] has as its system HCT-116.
The test system of assay [16] is KM12.
The test system of assay [17] is CAKI-1.
Assay [18] has as its system PC-3.
In assay [19] the test system is K562.
Assay [20] concerns RXF 393.

Consider `COc1cc(C(c2cc3c(cc2O)OCO3)N2CCCC2)cc(OC)c1OC` (stereo not drawn), for which the GI50 was 25.9 µM (inactive) in assay [1]; 3.35 µM (inactive) in assay [2]; 2.07 µM (inactive) in assay [3]; 7.96 µM (inactive) in [4]; 17.5 µM (inactive) in [5]; 14.6 µM (inactive) in assay [6]. For the same molecule, the GI50 in assay [7] was 30.3 µM (inactive); in assay [8] it was 15.4 µM (inactive); in assay [9], 3.96 µM (inactive); in [10] it was 20.2 µM (inactive); in [11], 6.73 µM (inactive); in [12], 16.1 µM (inactive). For the same molecule, the GI50 is 23.2 µM (inactive) in assay [13]; 30.5 µM (inactive) in assay [14]; 15.4 µM (inactive) in [15]; 18.2 µM (inactive) in [16]; 13.6 µM (inactive) in [17]; 17.3 µM (inactive) in assay [18]. Besides, in assay [19], the GI50 was 4.37 µM (inactive).
For the molecule `N#CCc1nc(O)c2ccccc2n1`, the GI50 in assay [1] was > 100 µM (inactive); in [3], 28.3 µM (inactive); in [4] it was > 100 µM (inactive); in assay [5], > 100 µM (inactive); in [6] it was 56.4 µM (inactive); in [7], > 100 µM (inactive). The GI50 was > 100 µM (inactive) in assay [8]; 39.7 µM (inactive) in assay [9]; > 100 µM (inactive) in assay [10]; > 100 µM (inactive) in assay [12]; 50.6 µM (inactive) in assay [13]; > 100 µM (inactive) in assay [14]. For the same molecule, the GI50 in assay [15], in assay [16], in assay [17] and in [18] was > 100 µM (inactive) throughout.
Turning to `COc1ccc([N+](=O)[O-])c2c(NCCCN(C)C)c(C)c(C)nc12`, the GI50 was > 100 µM (inactive) in assay [1]; 27.9 µM (inactive) in assay [2]; 42.9 µM (inactive) in [3]; 23.9 µM (inactive) in assay [4]; > 100 µM (inactive) in assay [5]; > 100 µM (inactive) in assay [6]. For the same molecule, the GI50 in [7] is > 100 µM (inactive); in assay [8] it was > 100 µM (inactive); in assay [9], > 100 µM (inactive); in [10], > 100 µM (inactive); in assay [11], 45.1 µM (inactive); in [12], > 100 µM (inactive). Further, the GI50 in assay [13] was 77.3 µM (inactive); in [14], 89.5 µM (inactive); in [15], 36.2 µM (inactive); in assay [16] it was > 100 µM (inactive); in assay [17] it was > 100 µM (inactive); in [18], 83 µM (inactive). Moreover, the GI50 in assay [19] is 37.6 µM (inactive).
Regarding `O=S(=O)(Nc1nc2ccccc2nc1Nc1cccc2ccccc12)c1ccccc1`, the GI50 in assay [1] was > 100 µM (inactive); in [20], 17.5 µM (inactive); in assay [4] it was 2.7 µM (inactive); in assay [5] it was 39.4 µM (inactive); in [6] it was > 100 µM (inactive); in assay [7] it was 19.9 µM (inactive). For the same molecule, the GI50 was 8 µM (inactive) in assay [8]; 8.93 µM (inactive) in assay [10]; 4.48 µM (inactive) in assay [11]; 20.7 µM (inactive) in assay [12]; 5.26 µM (inactive) in assay [13]; 13.9 µM (inactive) in assay [14]. Besides, the GI50 is 17.7 µM (inactive) in [15]; 5.61 µM (inactive) in assay [16]; 31.8 µM (inactive) in assay [17]; 6.46 µM (inactive) in assay [18]; > 100 µM (inactive) in [19].
Regarding `CC1(C)C(CCO)CC1n1cc(I)c(=O)[nH]c1=O` (stereo not drawn), the GI50 in assay [1], in [20], in assay [4], in assay [5], in [6] and in [7] was > 100 µM (inactive) throughout. Also, the GI50 in assay [8], in [9], in assay [10], in [13], in assay [14] and in assay [15] was > 100 µM (inactive) in each case. For the same molecule, the GI50 in assay [16], in [17], in assay [18] and in assay [19] was > 100 µM (inactive) throughout.
For `COCC1OC(Sc2ccccc2)C(O)C(OC)C1OC` (stereo not drawn), the GI50 in assay [1], in [2], in assay [3], in assay [20], in assay [5] and in [6] was > 100 µM (inactive) each time. For the same molecule, the GI50 in assay [7], in assay [8], in assay [9], in assay [10], in assay [11] and in [12] was > 100 µM (inactive) in each case. For the same molecule, the GI50 in [13], in assay [14], in assay [15], in assay [16], in [17] and in assay [18] was > 100 µM (inactive) throughout. For the same molecule, the GI50 in assay [19] was > 100 µM (inactive).
`CN(C)CCNc1nc(-c2ccc3ccccc3c2)nc2[nH]cnc12`: the GI50 was 13.1 µM (inactive) in assay [1]; 1.12 µM (active) in assay [2]; 3.93 µM (inactive) in [3]; 11.6 µM (inactive) in assay [20]; 6.9 µM (inactive) in assay [5]; 4.55 µM (inactive) in assay [6]. The GI50 in assay [7] is 7.48 µM (inactive); in assay [8], 2.73 µM (inactive); in [9], 3.55 µM (inactive); in assay [10], 6.38 µM (inactive); in assay [11], 4.51 µM (inactive); in assay [12], 10.8 µM (inactive). Besides, the GI50 in assay [13] is 12.5 µM (inactive); in [14], 10.9 µM (inactive); in assay [15], 8.83 µM (inactive); in assay [16], 4.8 µM (inactive); in assay [17] it was 4.89 µM (inactive); in [18], 4.76 µM (inactive). In addition, the GI50 in [19] is 21.1 µM (inactive).
On to `O=S(=O)(c1cc(Cl)ccc1Cl)N1CCN(S(=O)(=O)c2cc(Cl)ccc2Cl)CC1`, for which the GI50 in assay [1] is 16.3 µM (inactive); in [2], > 100 µM (inactive); in assay [20], > 100 µM (inactive); in assay [4], > 100 µM (inactive); in [5], > 100 µM (inactive); in assay [8], > 100 µM (inactive). The GI50 in [9], in assay [10], in assay [11], in assay [12], in [13] and in assay [14] was > 100 µM (inactive) throughout. The GI50 in [15], in assay [16], in assay [17], in [18] and in assay [19] was > 100 µM (inactive) each time.
On to `CCN(CC)Cc1cc(Nc2ccnc3ccc4c(nnn4C)c23)ccc1O`, for which the GI50 in [1] is 11.1 µM (inactive); in assay [2], 16.2 µM (inactive); in assay [3], 9.89 µM (inactive); in assay [20], 11.5 µM (inactive); in [5], 14.8 µM (inactive); in assay [6], 11.9 µM (inactive). Also, the GI50 in [7] is 14.1 µM (inactive); in assay [8] it was 2.81 µM (inactive); in assay [9], 3.86 µM (inactive); in assay [10] it was 21.5 µM (inactive); in assay [11], 13 µM (inactive); in assay [12], 16.1 µM (inactive). In addition, the GI50 in assay [13] was 23.9 µM (inactive); in [14], 4.92 µM (inactive); in assay [15], 4.93 µM (inactive); in assay [16], 14.9 µM (inactive); in assay [17], 13.5 µM (inactive); in [18] it was 6.82 µM (inactive). For the same molecule, the GI50 in [19] was 5.24 µM (inactive).
Turning to `Nc1ccccc1C(=O)CCc1c[nH]c2ccccc12`, the GI50 was > 100 µM (inactive) in [1]; > 100 µM (inactive) in assay [2]; > 100 µM (inactive) in [3]; 13.3 µM (inactive) in [4]; > 100 µM (inactive) in assay [5]; 47.5 µM (inactive) in assay [6]. Moreover, the GI50 is 27 µM (inactive) in assay [7]; 53.7 µM (inactive) in [8]; > 100 µM (inactive) in [9]; > 100 µM (inactive) in assay [10]; > 100 µM (inactive) in assay [11]; > 100 µM (inactive) in [12]. In addition, the GI50 in assay [13] was 5.53 µM (inactive); in [14], 32.2 µM (inactive); in assay [15], > 100 µM (inactive); in [16] it was > 100 µM (inactive); in assay [18] it was > 100 µM (inactive); in assay [19], > 100 µM (inactive).
Turning to `CC(N/N=C(\S)N1CCCCCC1)c1cccnn1` (stereo not drawn), the GI50 in assay [1] was 0.316 µM (active); in assay [2], 0.2 µM (active); in [3] it was 0.114 µM (active); in [20] it was 0.228 µM (active); in assay [5] it was 0.2 µM (active); in assay [6] it was 0.304 µM (active). Besides, the GI50 in assay [7] was 0.409 µM (active); in assay [8], 0.294 µM (active); in assay [9] it was 0.111 µM (active); in [10], 0.706 µM (active); in assay [11], 0.192 µM (active); in [12] it was 0.239 µM (active). Also, the GI50 in assay [13] is 0.163 µM (active); in [14], 0.374 µM (active); in assay [15], 0.325 µM (active); in [16], 0.525 µM (active); in assay [17], 0.395 µM (active); in [18], 0.104 µM (active). In assay [19], the GI50 was 0.2 µM (active).
